SMILES strings stand for the structures.

As usually defined, the EC50 is the concentration giving half of the maximal effect. A lower EC50 goes with a more potent agent.

A short description of this test: Inhibition of IL-6 production in MALT-1 dependent human OCILY3 cells incubated for 48 hrs by AlphaLISA immunoassay. It counts as functional, cell-based. As to conditions: OCI-Ly3, 48 h. (In Alpha technology, singlet oxygen from a donor bead excites a nearby acceptor bead.)
The molecule `CO[C@@H](C)c1c(Nc2ccc([C@H](N(C)C(=O)C3CCN(C(=O)CCO)CC3)C(F)(F)F)cc2)cnc2sc(C)nc12` registered a half-maximal effective concentration (EC50) of 0.38 µM.

For `CO[C@@H](c1c(Nc2ccc([C@H](N(C)C(=O)C3CCS(=O)(=O)CC3)C(F)(F)F)cc2)cnc2sc(C)nc12)C(F)F`, a half-maximal effect (EC50) was put at 0.34 µM.

`CO[C@@H](C)c1c(Nc2ccc([C@H](N(C)C(=O)C3CCS(=O)(=O)CC3)C(F)(F)F)cc2)cnc2sc(C(F)F)nc12` displayed a half-maximal effective concentration (EC50) of 0.3 µM.

Consider `CO[C@@H](C)c1c(Nc2ccc([C@H](N(C)C(=O)C3CCS(=O)(=O)CC3)C(F)(F)F)cc2)cnc2sc(C)nc12`, for which the EC50 is 0.2 µM.

`CO[C@H](c1c(Nc2ccc([C@@H](C(F)F)N(C)C(=O)C3CCN(C(=O)CO)CC3)cc2)cnc2sc(C)nc12)C(F)(F)F` yielded a 50% effective concentration (EC50) of 0.27 µM.

`CO[C@H](c1c(Nc2ccc([C@H](N(C)C(=O)C3CCN(C(C)=O)CC3)C(F)(F)F)cc2)cnc2sc(C)nc12)C(F)F` registered an EC50 of 1.15 µM.

The molecule `Cc1nc2c([C@H](C)C(F)(F)F)c(Nc3ccc([C@H](N(C)C(=O)C4CCS(=O)(=O)CC4)C(F)(F)F)cc3)cnc2s1` (single isomer, unassigned) returned an EC50 of 0.04 µM.

The molecule `CO[C@H](c1c(Nc2ccc([C@H](N(C)C(=O)C3CCS(=O)(=O)CC3)C(F)(F)F)cc2)cnc2sc(C)nc12)C(F)F` had a concentration giving a half-maximal response (EC50) of 0.14 µM.

In turn, `CO[C@@H](C)c1c(Nc2ccc([C@H](N(C)C(=O)C3CCN(C(=O)[C@H](O)CO)CC3)C(F)(F)F)cc2)cnc2sc(C)nc12` returned a concentration for a half-maximal effect (EC50) of 0.41 µM.

The molecule `CO[C@H](C)c1c(Nc2ccc([C@H](N(C)C(=O)C3CCS(=O)(=O)CC3)C(F)(F)F)cc2)cnc2sc(C)nc12` had a concentration for a half-maximal effect (EC50) of 0.07 µM.

`CO[C@H](c1c(Nc2ccc([C@@H](C(F)F)N(C)C(=O)C3CCN(C(=O)CO)CC3)cc2)cnc2sc(C)nc12)C(F)F` showed a 50% effective concentration (EC50) of 0.44 µM.

`CO[C@H](C)c1c(Nc2ccc([C@@H](C(F)F)N(C)C(=O)C3CCS(=O)(=O)CC3)cc2)cnc2sc(C)nc12` came in with an EC50 of 0.2 µM.

(Values after ChEMBL document CHEMBL5532727, “The Inhibitors of Mucosa-Associated Lymphoid Tissue Lymphoma Translocation Protein 1 (MALT-1) Protease as Potential Treatment of ABC-DLBCL and Similar Diseases” (ACS Med Chem Lett, 2024).)
